The text below walks through data of paper PMC4970510 (Journal of Medicinal Chemistry, 2016).

Assay [1] relates to human A2BAR. The note with it: at 1 mM, human fibroblasts; cited from earlier work.
In assay [2] the test system is mouse chronic constriction injury (CCI) model. The note with it: same dose (3 μmol/kg po); cited from earlier work.
Assay [3] addresses T1, hA3AR (Homo sapiens, UniProt P0DMS8).
T1 sequence (P0DMS8 1-318): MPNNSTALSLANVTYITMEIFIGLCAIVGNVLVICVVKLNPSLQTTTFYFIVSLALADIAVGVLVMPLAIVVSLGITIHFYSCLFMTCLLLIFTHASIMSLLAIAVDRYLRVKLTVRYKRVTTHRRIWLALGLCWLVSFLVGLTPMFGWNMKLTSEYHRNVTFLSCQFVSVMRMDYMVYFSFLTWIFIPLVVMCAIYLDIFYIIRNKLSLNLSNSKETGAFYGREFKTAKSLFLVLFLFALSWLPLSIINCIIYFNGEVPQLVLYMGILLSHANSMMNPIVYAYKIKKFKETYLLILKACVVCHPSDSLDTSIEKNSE
Kind of assay: Radioligand binding at hA3AR. The note with it: ratio of hA3AR Ki.

Assay [4] addresses T2, mA3AR (Mus musculus, UniProt Q61618).
T2 sequence (Q61618 1-319): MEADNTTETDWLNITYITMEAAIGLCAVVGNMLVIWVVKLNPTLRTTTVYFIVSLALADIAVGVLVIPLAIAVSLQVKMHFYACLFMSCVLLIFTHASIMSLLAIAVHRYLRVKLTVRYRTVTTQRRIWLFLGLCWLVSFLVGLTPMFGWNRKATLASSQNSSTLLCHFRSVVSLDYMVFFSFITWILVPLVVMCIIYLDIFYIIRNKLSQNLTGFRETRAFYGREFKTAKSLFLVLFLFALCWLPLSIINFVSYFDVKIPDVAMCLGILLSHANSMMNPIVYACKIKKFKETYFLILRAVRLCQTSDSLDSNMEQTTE
It counts as cell-based. The note with it: compared to reference full agonist 55.

For assay [5], the system named is mouse chronic constriction injury (CCI) model. Briefly: Mouse chronic constriction injury. It counts as in vivo. The conditions noted are these: po, 3 μmol/kg.
The target in assay [6] is human dopamine transporter (hDAT) (Homo sapiens, UniProt Q01959). Kind of assay: PDSP radioligand binding at human dopamine transporter. The note with it: at 10 μM, [3H] tropane radioligand.
Assay [7] in a line: PDSP broad off-target screen of receptors and channels. It counts as binding. The conditions noted are these: PDSP screen of diverse receptors.
In assay [8] the target is T3, hA1AR (Homo sapiens, UniProt P30542).
T3 sequence (P30542 1-326): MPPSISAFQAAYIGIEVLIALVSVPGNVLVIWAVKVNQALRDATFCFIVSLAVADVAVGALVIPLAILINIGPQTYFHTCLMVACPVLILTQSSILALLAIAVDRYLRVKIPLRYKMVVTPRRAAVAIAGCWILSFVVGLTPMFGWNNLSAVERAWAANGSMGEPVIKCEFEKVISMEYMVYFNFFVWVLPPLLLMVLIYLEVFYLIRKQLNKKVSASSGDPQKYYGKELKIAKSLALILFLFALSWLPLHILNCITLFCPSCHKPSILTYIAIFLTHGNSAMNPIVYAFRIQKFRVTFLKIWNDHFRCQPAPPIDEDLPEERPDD
Briefly: Radioligand binding at hA1AR.

The target in assay [9] is hA2AAR (Homo sapiens, UniProt P29274). Kind of assay: Radioligand binding at hA2AAR.
The target of assay [10] is T1, hA3AR. It counts as cell-based. The conditions noted are these: relative to 1 at 10 μM, CHO cells.
The test system of assay [11] is canine coronary artery A2AAR. The conditions noted are these: activation of canine coronary artery A2AAR; cited from earlier work.
Assay [12] relates to adenosine deaminase. The conditions noted are these: cited from earlier work.

“Also recorded” adds a separate entry of the source. Some results are limits rather than exact numbers.

Sequence of hA2AAR (P29274 whole entry): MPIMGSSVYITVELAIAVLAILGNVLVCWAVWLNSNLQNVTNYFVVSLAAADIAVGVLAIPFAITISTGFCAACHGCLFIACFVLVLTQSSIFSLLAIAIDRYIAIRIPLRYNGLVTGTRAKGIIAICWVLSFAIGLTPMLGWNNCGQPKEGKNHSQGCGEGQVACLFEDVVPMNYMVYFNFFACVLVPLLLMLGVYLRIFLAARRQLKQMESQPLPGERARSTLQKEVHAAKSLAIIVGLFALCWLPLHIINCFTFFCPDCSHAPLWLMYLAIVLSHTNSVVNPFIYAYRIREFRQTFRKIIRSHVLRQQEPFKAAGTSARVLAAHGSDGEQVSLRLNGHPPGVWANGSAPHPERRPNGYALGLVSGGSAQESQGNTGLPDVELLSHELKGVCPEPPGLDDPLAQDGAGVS
Sequence of human dopamine transporter (hDAT) (Q01959 whole entry): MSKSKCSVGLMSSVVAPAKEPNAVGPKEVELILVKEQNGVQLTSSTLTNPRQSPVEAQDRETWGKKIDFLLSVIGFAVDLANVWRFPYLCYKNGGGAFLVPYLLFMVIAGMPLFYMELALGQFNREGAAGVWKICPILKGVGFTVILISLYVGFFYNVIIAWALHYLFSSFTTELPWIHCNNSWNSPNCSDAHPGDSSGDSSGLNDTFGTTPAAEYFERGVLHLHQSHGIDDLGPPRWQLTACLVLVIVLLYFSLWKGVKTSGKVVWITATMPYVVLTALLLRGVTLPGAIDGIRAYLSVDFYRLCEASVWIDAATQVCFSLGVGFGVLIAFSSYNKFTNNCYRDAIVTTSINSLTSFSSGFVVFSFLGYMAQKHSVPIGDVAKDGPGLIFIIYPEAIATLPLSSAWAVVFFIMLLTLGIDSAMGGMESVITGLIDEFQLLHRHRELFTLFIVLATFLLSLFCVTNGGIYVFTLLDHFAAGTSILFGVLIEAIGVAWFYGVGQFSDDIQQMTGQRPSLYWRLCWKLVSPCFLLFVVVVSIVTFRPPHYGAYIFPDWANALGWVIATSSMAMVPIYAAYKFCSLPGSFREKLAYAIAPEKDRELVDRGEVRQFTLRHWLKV

For the compound `Cc1ncnc2c1ncn2[C@@H]1O[C@H](CO)[C@@H](O)[C@H]1O` [6-methylpurine-9-riboside], the “Efficacy relative to 10 μM adenosine” value in assay [1] is 6%.
`CNC(=O)[C@@]12C[C@@H]1[C@@H](n1cnc3c(NCc4cccc(Cl)c4)nc(C#Cc4ccc(F)c(F)c4)nc31)[C@H](O)[C@@H]2O` [Compound 8]: in assay [2], the “Protection against mechanoallodynia at 1 h” value is 100%.
As to `CNC(=O)[C@@]12C[C@@H]1[C@@H](n1cnc3c(/C=C(\O)c4ccccc4)nc(C#Cc4ccccc4)nc31)[C@H](O)[C@@H]2O` [Compound 12, (1S,2R,3S,4R,5S)-2,3-Dihydroxy-4-(6-((Z)-2-hydroxy-2-phenylvinyl)-2-(phenylethynyl)-9H-purin-9-yl)-N-methylbicyclo[3.1.0]hexane-1-carboxamide], in assay [3], the “Fold more potent at hA3AR than C2–Cl derivative 11b” value was 15 fold. In assay [4], the mA3AR agonist efficacy result is “full agonists”. Further, in assay [5] (day 7), the “Reversal of mechanoallodynia (neuropathic pain)” value (“Reversal of mechanoallodynia” for short) is given as “efficacious in reducing pain” and the “Reversal of the pain” value is below 100%.
Take `CNC(=O)[C@@]12C[C@@H]1[C@@H](n1cnc3c(C)nc(C#Cc4ccccc4)nc31)[C@H](O)[C@@H]2O` [Compound 15]: in assay [5] (day 7), the “Reversal of mechanoallodynia” value is given as “efficacious in reducing pain” and the “Reversal of the pain” value is below 100%. Also, the “Enhancement of hDAT radioligand binding” value in assay [6] is “roughly 200%”. Also, the Off-target interactions entry in assay [7] is on record as “no significant binding inhibition”.
In the case of `CNC(=O)[C@@]12C[C@@H]1[C@@H](n1cnc3c(C)nc(C#Cc4ccc(Cl)s4)nc31)[C@H](O)[C@@H]2O` [Compound 19, (1S,2R,3S,4R,5S)-4-(2-((5-Chlorothiophen-2-yl)ethynyl)-6-methyl-9H-purin-9-yl)-2,3-dihydroxy-N-methylbicyclo[3.1.0]hexane-1-carboxamide], the Ki in [8] and in [9] was above 10 µM in each case. Also, the hA3AR agonist efficacy result in assay [10] was “potent, full agonists”.
`CNC(=O)[C@@]12C[C@@H]1[C@@H](n1cnc3cnc(C#Cc4ccc(Cl)s4)nc31)[C@H](O)[C@@H]2O` [Compound 21, (1S,2R,3S,4R,5S)-4-(2-((5-Chlorothiophen-2-yl)ethynyl)-9H-purin-9-yl)-2,3-dihydroxy-N-methylbicyclo[3.1.0]hexane-1-carboxamide]: the Ki in [8] and in assay [9] was above 10 µM in each case. Moreover, the hA3AR agonist efficacy entry in assay [10] is recorded as “potent, full agonists”. In addition, the Duration of action entry in [5] (day 7) is “at least 5 h”. Further, the “Reversal of mechanoallodynia” value in [5] (day 7) was “clearly more efficacious and longer lasting; also recorded: completely reversing mechanoallodynia”; in assay [5] (day 7, listed as MRS7220), “completely reversed”. In assay [7], the Off-target interactions result was “no off-target interactions”.
`OC[C@H]1O[C@@H](n2cnc3cncnc32)[C@H](O)[C@@H]1O` [Compound 56, purine-9-riboside]: in [1], the “Efficacy relative to 10 μM adenosine” value is listed as 15%. The “Fold less potent than adenosine” value in assay [11] is recorded as 40 fold. In addition, in assay [12], the Adenosine deaminase inhibition result is “weak inhibitor”.

For orientation: Ki means the dissociation constant of the complex between target and ligand, obtained from inhibition or displacement. A lower Ki goes with a stronger hold on the target.
